# According to patent US10501460B2, “Heterocyclic compounds and uses thereof” (Plexxikon Inc., priority 2013, dated 2019):
# pIC50: −log10 of the molar value.
# What was measured:
# [1] = target: T1, BRD4-BD1 (44-164) (Homo sapiens, UniProt O60885); assay: Alphascreen binding assay BRD4-BD1 (BRD4 biochemical inhibitory activity); conditions: read-out: Biochemical activity (IC50 μM) BRD4(1) H4
# T1 construct: BRD4-BD1 (44-164); made in house; host or cells: E. coli BL21-CodonPlus (DE3)
# In short: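 His-tagged human BRD4-BD1 (44-164), E. coli-expressed, incubated 1 h at room temperature with compound and biotinylated tetra-acetylated histone H4 (1-21) peptide in HEPES pH 7.5 buffer with NaCl, BSA, Triton X-100 and DTT. AlphaScreen nickel-chelate/streptavidin beads (7.5 μg/ml final) added, read after 30 min. pIC50 from four-parameter fit of control-normalized signal.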
# [2] = tested on: MV-4-11; assay: Oncology cell growth assay MV-4-11 (CellTiter Glo, 72 hours); assay type: cell-based; conditions: Homo sapiens, MV4-11, 72 h; MV-4-11 cell growth inhibitory activity, 3d
# In short: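 Growth read by CellTiter Glo luminescence after 72 h compound exposure of MV-4-11 AML cells (MLL-AF4), using 8-point 1:3 series to 10 μM final in 0.2% DMSO. Data normalized to DMSO wells, four-parameter fit yields pIC50.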
# [3] = tested on: bromodomain; assay: Bromodomain cell assays of Example 40 (at least one of them); assay type: cell-based; conditions: in at least one of the bromodomain cell assays described in Example 40
# In short: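 Growth inhibition: 3000 MV-4-11, MOLM-13, MM.1S or neuroblastoma cells/well got an 8-point 1:3 series from 10 μM top (0.2% DMSO) for 72 h, then CellTiter-Glo luminescence. Myc reporter: MV-4-11 with E-box firefly luciferase, 24 h exposure, One-Glo luminescence plus CellTiter-Fluo cell count. pIC50 from four-parameter fit.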
SMILES,IC50 [1] [µM],IC50 [2] [µM],pIC50 [3]
"Cc1noc(C)c1-c1cnc2c(-c3cnc(C4CC4)nc3)cn(S(=O)(=O)c3ccccc3)c2c1 [P-0102, 4-[1-(benzenesulfonyl)-3-(2-cyclopropylpyrimidin-5-yl)pyrrolo[3,2-b]pyridin-6-yl]-3,5-dimethyl-isoxazole]",1 to 10,1 to 10,> 5.00
"CCCCC(O)(c1cn(C)c2ncc(-c3c(C)noc3C)cc12)C1CCC(F)(F)CC1 (stereo not drawn) [P-0108, 1-(4,4-difluorocyclohexyl)-1-[5-(3,5-dimethylisoxazol-4-yl)-1-methyl-pyrrolo[2,3-b]pyridin-3-yl]pentan-1-ol]",≤ 1,≤ 1,> 5.00
"CCCCC(c1cn(C)c2ncc(-c3c(C)noc3C)cc12)C1CCC(F)(F)CC1 (stereo not drawn) [P-0109, 4-[3-[1-(4,4-difluorocyclohexyl)pentyl]-1-methyl-pyrrolo[2,3-b]pyridin-5-yl]-3,5-dimethyl-isoxazole]",≤ 1,1 to 10,> 5.00
"Cc1noc(C)c1-c1cnc2c(C#CCF)cn(S(=O)(=O)c3ccccc3)c2c1 [P-0157, 4-[1-(benzenesulfonyl)-3-(3-fluoroprop-1-ynyl)pyrrolo[3,2-b]pyridin-6-yl]-3,5-dimethyl-isoxazole]",≤ 1,≤ 1,> 5.00
"Cc1cc(-c2cn(S(=O)(=O)c3ccccc3)c3cc(-c4c(C)noc4C)cnc23)[nH]n1 [P-0164, 4-[1-(benzenesulfonyl)-3-(3-methyl-1H-pyrazol-5-yl)pyrrolo[3,2-b]pyridin-6-yl]-3,5-dimethyl-isoxazole]",≤ 1,≤ 1,> 5.00
"Cc1noc(C)c1-c1cnc2c(CCC(=O)O)cn(S(=O)(=O)c3ccccc3)c2c1 [P-0174, 3-[1-(benzenesulfonyl)-6-(3,5-dimethylisoxazol-4-yl)pyrrolo[3,2-b]pyridin-3-yl]propanoic acid]",1 to 10,1 to 10,> 5.00
"Cc1noc(C)c1-c1cnc2c(c1)c(S(=O)(=O)c1ccccc1)cn2C1COC1 [P-0179, 4-[3-(benzenesulfonyl)-1-(oxetan-3-yl)pyrrolo[2,3-b]pyridin-5-yl]-3,5-dimethyl-isoxazole]",1 to 10,1 to 10,> 5.00
"Cc1noc(C)c1-c1cnc2c(c1)c(Sc1ccccc1)cn2C1CCOC1 (stereo not drawn) [P-0180, 3,5-dimethyl-4-(3-phenylsulfanyl-1-tetrahydrofuran-3-yl-pyrrolo[2,3-b]pyridin-5-yl)isoxazole]",1 to 10,1 to 10,> 5.00
"Cc1noc(C)c1-c1cnc2c(c1)c(S(=O)(=O)c1ccccc1)cn2C1CCOC1 (stereo not drawn) [P-0181, 4-[3-(benzenesulfonyl)-1-tetrahydrofuran-3-yl-pyrrolo[2,3-b]pyridin-5-yl]-3,5-dimethyl-isoxazole]",1 to 10,≤ 1,> 5.00
"Cc1noc(C)c1-c1cnc2c(c1)c(Sc1ccccc1)cn2C1CCOCC1 [P-0182, 3,5-dimethyl-4-(3-phenylsulfanyl-1-tetrahydropyran-4-yl-pyrrolo[2,3-b]pyridin-5-yl)isoxazole]",1 to 10,≤ 1,> 5.00
"Cc1noc(C)c1-c1cnc2c(c1)c(S(=O)(=O)c1ccccc1)cn2C1CCOCC1 [P-0183, 4-[3-(benzenesulfonyl)-1-tetrahydropyran-4-yl-pyrrolo[2,3-b]pyridin-5-yl]-3,5-dimethyl-isoxazole]",1 to 10,≤ 1,> 5.00
"Cc1nc(-c2cn(S(=O)(=O)c3ccccc3)c3cc(-c4c(C)noc4C)cnc23)cs1 [P-0191, 4-[1-(benzenesulfonyl)-3-(2-methylthiazol-4-yl)pyrrolo[3,2-b]pyridin-6-yl]-3,5-dimethyl-isoxazole]",1 to 10,≤ 1,> 5.00
"[2H]C([2H])(C1CCC(F)(F)CC1)n1cc(-c2cnn(C3CC3)c2)c2ncc(-c3c(C)noc3C)cc21 [P-0220, 4-[3-(1-cyclopropylpyrazol-4-yl)-1-[dideuterio-(4,4-difluorocyclohexyl)methyl]pyrrolo[3,2-b]pyridin-6-yl]-3,5-dimethyl-isoxazole]",≤ 1,≤ 1,> 5.00
